Here are results for one compound from patent US7067482B2, “Cross-linked glycopeptide-cephalosporin antibiotics” (Theravance, Inc., priority 2003, dated 2006).

Broadly, the MIC is the lowest concentration that inhibits growth of the organism. In general, ED50 refers to the midpoint of the dose-response relation.

Assay [1] has as its system MRSA 33591. Nature of the assay: Time-kill assay. The following applies: in 24 hours; bactericidal = >=3 log decrease in bacterial cell numbers. Type of assay: cell-based, Staphylococcus aureus. Here is the method: This time-kill assay is a method for measuring the rate of bactericidal activity of a test compound. These procedures are similar to those described in V. Lorian, “Antibiotics in Laboratory Medicine”, Fourth Edition, Williams and Wilkins (1996), pages 104–105. A rapid time-kill is desirable to quickly prevent bacterial colonization and reduce host tissue damage.
Bacterial inocula were prepared as described in Example 6 for determination of MIC. Bacteria were diluted in prewarmed media in shake flasks and incubated with shaking (200 rpm, 35° C.). At 0, 1, 4, and 24 hours samples were withdrawn from the flasks and bacteria were enumerated by plate counting. Subsequent to the initial sampling, a test compound to be assayed was added to the shake flask culture. Plate counts at these intervals previous to and following addition of the compound were expressed graphically in a time-kill curve. Bactericidal activity is defined as a greater than or equal to 3 log decrease (reduction greater than or equal to 99.9%) in bacterial cell numbers by 24 hours.
By comparison, vancomycin was bactericidal against MRSA 33591 at a concentration of 4 μg/mL in 24 hours.

In assay [2] the test system is MRSA 33591. The assay is described as follows: Minimal inhibitory concentration (MIC), broth microdilution, MRSA 33591. To be noted: Staphylococcus aureus, read-out: MIC MRSA 33591. (Broth dilution looks for growth in wells or tubes with falling amounts of substance.)
Assay [3] has as its system methicillin-susceptible Staphylococcus aureus (MSSA 13709) and methicillin-resistant Staphylococcus aureus (MRSA 33591). Nature of the assay: In vivo efficacy studies in neutropenic mice (thigh infection). To be noted: iv, 24 h, read-out: ED50 (dose required to produce 50% of the maximum reduction in thigh titre).
Another assay relates to MSSA 13709. Nature of the assay: Minimal inhibitory concentration (MIC), broth microdilution, MSSA 13709. The following applies: Staphylococcus aureus, read-out: MIC MSSA 13709.

≈ marks a conversion by molar mass, not a printed value.

For `CN[C@H](CC(C)C)C(=O)N[C@H]1C(=O)N[C@@H](CC(N)=O)C(=O)N[C@H]2C(=O)N[C@H]3C(=O)N[C@H](C(=O)N[C@H](C(=O)O)c4cc(O)cc(O)c4-c4cc3ccc4O)[C@H](O)c3ccc(c(Cl)c3)Oc3cc2cc(c3O[C@@H]2O[C@H](CO)[C@@H](O)[C@H](O)[C@H]2O[C@H]2C[C@](C)(N)[C@H](O)[C@H](C)O2)Oc2ccc(cc2Cl)[C@H]1O` [Vancomycin, vancomycin], the “concentration at which bactericidal” value in the assay with MRSA 33591 [1] was determined as 4 µg/mL. Moreover, the minimal inhibitory concentration (MIC) with MRSA 33591 [2] is 2 µg/mL (≈ 1.38 µM); in the assay with MSSA 13709, 1 µg/mL (≈ 0.69 µM). Moreover, the ED50 in assay [3] came to 9 mg/kg.
